According to patent US10638756B2, “Molecules having pesticidal utility, and intermediates, compositions, and processes, related thereto” (Dow AgroSciences LLC, priority 2017, dated 2020):

Tests used:
Type in all cases: in vivo
[1] = test system: Beet Armyworm (Spodoptera exigua); assay: Bioassay on Beet Armyworm (BAW), 128-well diet tray assay; details: Spodoptera exigua, 168 h; 50 μg/cm^2 on artificial diet, second instar larvae, five to seven days; read-out: BAW % Control (or Mortality) rating
[2] = test system: Yellow Fever Mosquito (Aedes aegypti); details: about 1 day-old larvae, 3 days, scored on mortality
Experimental: Certain molecules disclosed in this document were tested against YFM using procedures described in the following paragraph. In the reporting of the results, the “GPA & YFM Rating Table” was used (See Table Section).
Master plates containing 400 μg of a molecule dissolved in 100 μL of dimethyl sulfoxide (DMSO) (equivalent to a 4000 ppm solution) are used. A master plate of assembled molecules contains 15 μL per well. To this plate, 135 μL of a 90:10 water/acetone mixture is added to each well. A robot (Biomek® NXP Laboratory Automation Workstation) is programmed to dispense 15 μL aspirations from the master plate into an empty 96-well shallow plate (“daughter” plate). There are 6 reps (“daughter” plates) created per master. The created “daughter” plates are then immediately infested with YFM larvae.
The day before plates are to be treated, mosquito eggs are placed in Millipore water containing liver powder to begin hatching (4 g. into 400 mL). After the “daughter” plates are created using the robot, they are infested with 220 μL of the liver powder/larval mosquito mixture (about 1 day-old larvae). After plates are infested with mosquito larvae, a non-evaporative lid is used to cover the plate to reduce drying. Plates are held at room temperature for 3 days prior to grading. After 3 days, each well is observed and scored based on mortality. The results are indicated in the table entitled “Table ABC: Biological Results” (See Table Section).

[3] = test system: Cabbage Looper (Trichoplusia ni); assay: Bioassay on Cabbage Looper (CL), 128-well diet tray assay; details: 168 h, 50 μg/cm^2 on artificial diet, second instar larvae, five to seven days, read-out: CL % Control (or Mortality) rating
Method in brief: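 One to five second-instar larvae per well on artificial diet surface-treated with 50 μg/cm^2 test molecule (applied in 90:10 acetone-water, dried). Held 5–7 days at 25° C, 14:10 light-dark; percent mortality recorded per well and averaged over eight wells.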

Compound	mortality at 50 µg/cm2 [1]	YFM % Control (or Mortality) rating [2]	mortality at 50 µg/cm2 [3]
Cc1csc(N(N)C(=O)c2ccc(/C(F)=C/C(c3cc(Cl)c(Cl)c(Cl)c3)C(F)(F)F)cc2C(F)(F)F)n1 (stereo not drawn) [F109, (Z)—N-(4-Methylthiazol-2-yl)-4-(1,4,4,4-tetrafluoro-3-(3,4,5-trichlorophenyl)but-1-en-1-yl)-2-(trifluoromethyl)benzohydrazide]	50 to 100%	A (80-100)	50 to 100%
O=C(NNc1ncccn1)c1ccc(/C(F)=C/C(c2cc(Cl)c(Br)c(Cl)c2)C(F)(F)F)cc1C(F)(F)F (stereo not drawn) [F172, (Z)-4-(3-(4-Bromo-3,5-dichlorophenyl)-1,4,4,4-tetrafluorobut-1-en-1-yl)-N′-(pyrimidin-2-yl)-2-(trifluoromethyl)benzohydrazide]	50 to 100%	A (80-100)	50 to 100%
O=C(NNc1nccc(C(F)(F)F)n1)c1ccc(/C(F)=C/C(c2cc(Cl)c(Cl)c(Cl)c2)C(F)(F)F)cc1C(F)(F)F (stereo not drawn) [F44, (Z)-4-(1,4,4,4-Tetrafluoro-3-(3,4,5-trichlorophenyl)but-1-en-1-yl)-2-(trifluoromethyl)-N′-(4-(trifluoromethyl)pyrimidin-2-yl)benzohydrazide]	50 to 100%	–	50 to 100%
O=C(NNc1ncccn1)c1ccc(/C(F)=C/C(c2ccc(Cl)c(OC(F)(F)F)c2)C(F)(F)F)cc1C(F)(F)F (stereo not drawn) [F42, (Z)-4-(3-(4-Chloro-3-(trifluoromethoxy)phenyl)-1,4,4,4-tetrafluorobut-1-en-1-yl)-N′-(pyrimidin-2-yl)-2-(trifluoromethyl)benzohydrazide]	50 to 100%	–	50 to 100%
CCc1cnc(NNC(=O)c2ccc(/C(F)=C/C(c3cc(Cl)c(Cl)c(Cl)c3)C(F)(F)F)cc2C(F)(F)F)nc1 (stereo not drawn) [F84, (Z)—N′-(5-Ethylpyrimidin-2-yl)-4-(1,4,4,4-tetrafluoro-3-(3,4,5-trichlorophenyl)but-1-en-1-yl)-2-(trifluoromethyl)benzohydrazide]	50 to 100%	–	50 to 100%
C=Cc1cc(C(/C=C(\F)c2ccc(C(=O)NNc3ncccn3)c(C(F)(F)F)c2)C(F)(F)F)cc(Cl)c1Cl (stereo not drawn) [F168, (Z)-4-(3-(3,4-dichloro-5-vinylphenyl)-1,4,4,4-tetrafluorobut-1-en-1-yl)-N′-(pyrimidin-2-yl)-2-(trifluoromethyl)benzohydrazide]	50 to 100%	–	50 to 100%
CN(NC(=O)c1ccc(/C(F)=C/C(c2cc(Br)c(F)c(Br)c2)C(F)(F)F)cc1C(F)(F)F)c1ccccc1 (stereo not drawn) [F123, (Z)-4-(3-(3,5-Dibromo-4-fluorophenyl)-1,4,4,4-tetrafluorobut-1-en-1-yl)-N′-methyl-N′-phenyl-2-(trifluoromethyl)benzohydrazide]	50 to 100%	–	50 to 100%
C#CCN(NC(=O)c1ccc(/C(F)=C/C(c2cc(Cl)c(Cl)c(Cl)c2)C(F)(F)F)cc1C(F)(F)F)c1ncccn1 (stereo not drawn) [F150, (Z)—N′-(Prop-2-yn-1-yl)-N′-(pyrimidin-2-yl)-4-(1,4,4,4-tetrafluoro-3-(3,4,5-trichlorophenyl)but-1-en-1-yl)-2-(trifluoromethyl)benzohydrazide]	50 to 100%	–	50 to 100%
COc1cnc(NNC(=O)c2ccc(/C(F)=C/C(c3cc(Cl)c(Cl)c(Cl)c3)C(F)(F)F)cc2C(F)(F)F)nc1 (stereo not drawn) [F90, (Z)—N′-(5-Methoxypyrimidin-2-yl)-4-(1,4,4,4-tetrafluoro-3-(3,4,5-trichlorophenyl)but-1-en-1-yl)-2-(trifluoromethyl)benzohydrazide]	50 to 100%	–	50 to 100%
O=C(NNc1ccccn1)c1ccc(/C(F)=C/C(c2cc(Br)c(F)c(Br)c2)C(F)(F)F)cc1C(F)(F)F (stereo not drawn) [F6, (Z)-4-(3-(3,5-Dibromo-4-fluorophenyl)-1,4,4,4-tetrafluorobut-1-en-1-yl)-N′-(pyridin-2-yl)-2-(trifluoromethyl)benzohydrazide]	50 to 100%	–	50 to 100%
O=C(NNc1cccnc1)c1ccc(/C(F)=C/C(c2cc(Cl)c(Cl)c(Cl)c2)C(F)(F)F)cc1C(F)(F)F (stereo not drawn) [F121, (Z)—N′-(Pyridin-3-yl)-4-(1,4,4,4-tetrafluoro-3-(3,4,5-trichlorophenyl)but-1-en-1-yl)-2-(trifluoromethyl)benzohydrazide]	50 to 100%	–	50 to 100%
O=C(NNC1CCC(F)(F)CC1)c1ccc(/C(F)=C/C(c2cc(Cl)c(Cl)c(Cl)c2)C(F)(F)F)cc1C(F)(F)F (stereo not drawn) [F146, (Z)—N′-(4,4-Difluorocyclohexyl)-4-(1,4,4,4-tetrafluoro-3-(3,4,5-trichlorophenyl)but-1-en-1-yl)-2-(trifluoromethyl)benzohydrazide]	50 to 100%	–	50 to 100%
CN(NC(=O)c1ccc(/C(F)=C/C(c2cc(Cl)c(Cl)c(Cl)c2)C(F)(F)F)cc1Cl)c1ncccn1 (stereo not drawn) [F43, (Z)-2-Chloro-N′-methyl-N′-(pyrimidin-2-yl)-4-(1,4,4,4-tetrafluoro-3-(3,4,5-trichlorophenyl)but-1-en-1-yl)benzohydrazide]	50 to 100%	–	50 to 100%
CN(NC(=O)c1ccc(/C(F)=C/[C@H](c2cc(Cl)c(Cl)c(Cl)c2)C(F)(F)F)cc1C(F)(F)F)c1ncccn1 (single isomer, unassigned) [F29]	50 to 100%	–	50 to 100%
O=C(NNc1c(Cl)c(Cl)nc(Cl)c1Cl)c1ccc(/C(F)=C/C(c2cc(Cl)c(Cl)c(Cl)c2)C(F)(F)F)cc1C(F)(F)F (stereo not drawn) [F131, (Z)—N′-(Perchloropyridin-4-yl)-4-(1,4,4,4-tetrafluoro-3-(3,4,5-trichlorophenyl)but-1-en-1-yl)-2-(trifluoromethyl)benzohydrazide]	0%	–	0%
CN(NC(=O)c1ccc(/C(F)=C/C(c2ccc(Br)c(Cl)c2)C(F)(F)F)cc1C(F)(F)F)c1ncccn1 (stereo not drawn) [F125, (Z)-4-(3-(4-Bromo-3-chlorophenyl)-1,4,4,4-tetrafluorobut-1-en-1-yl)-N′-methyl-N′-(pyrimidin-2-yl)-2-(trifluoromethyl)benzohydrazide]	50 to 100%	–	50 to 100%
O=C(NNc1ccccc1[N+](=O)[O-])c1ccc(/C(F)=C/C(c2cc(Cl)c(Cl)c(Cl)c2)C(F)(F)F)cc1C(F)(F)F (stereo not drawn) [F118, (Z)—N′-(2-nitrophenyl)-4-(1,4,4,4-tetrafluoro-3-(3,4,5-trichlorophenyl)but-1-en-1-yl)-2-(trifluoromethyl)benzohydrazide]	50 to 100%	–	50 to 100%
CN(CC1CC1)NC(=O)c1ccc(/C(F)=C/C(c2cc(Cl)c(Cl)c(Cl)c2)C(F)(F)F)cc1C(F)(F)F (stereo not drawn) [F159, (Z)—N′-(Cyclopropylmethyl)-N′-methyl-4-(1,4,4,4-tetrafluoro-3-(3,4,5-trichlorophenyl)but-1-en-1-yl)-2-(trifluoromethyl)benzohydrazide]	50 to 100%	–	50 to 100%
O=C(NNc1ncccn1)c1ccc(/C(F)=C/C(c2cc(Br)c(Cl)c(Br)c2)C(F)(F)F)cc1C(F)(F)F (stereo not drawn) [F185, (Z)-4-(3-(3,5-Dibromo-4-chlorophenyl)-1,4,4,4-tetrafluorobut-1-en-1-yl)-N′-(pyrimidin-2-yl)-2-(trifluoromethyl)benzohydrazide]	50 to 100%	–	50 to 100%
O=C(Nn1ccnn1)c1ccc(/C(F)=C/C(c2cc(Cl)c(Cl)c(Cl)c2)C(F)(F)F)cc1C(F)(F)F (stereo not drawn) [F62, (Z)-4-(1,4,4,4-Tetrafluoro-3-(3,4,5-trichlorophenyl)but-1-en-1-yl)-N-(1H-1,2,3-triazol-1-yl)-2-(trifluoromethyl)benzamide]	50 to 100%	–	50 to 100%
O=C(NNc1ccncc1)c1ccc(/C(F)=C/C(c2cc(Cl)c(Cl)c(Cl)c2)C(F)(F)F)cc1C(F)(F)F (stereo not drawn) [F57, (Z)—N′-(Pyridin-4-yl)-4-(1,4,4,4-tetrafluoro-3-(3,4,5-trichlorophenyl)but-1-en-1-yl)-2-(trifluoromethyl)benzohydrazide]	50 to 100%	–	50 to 100%
Cc1ccc(NNC(=O)c2ccc(/C(F)=C/C(c3cc(Cl)c(Cl)c(Cl)c3)C(F)(F)F)cc2C(F)(F)F)cc1 (stereo not drawn) [F68, (Z)-4-(1,4,4,4-Tetrafluoro-3-(3,4,5-trichlorophenyl)but-1-en-1-yl)-N′-(p-tolyl)-2-(trifluoromethyl)benzohydrazide]	50 to 100%	–	50 to 100%
O=C(NNC1CCC1)c1ccc(/C(F)=C/C(c2cc(Cl)c(Cl)c(Cl)c2)C(F)(F)F)cc1C(F)(F)F (stereo not drawn) [F138, (Z)—N′-Cyclobutyl-4-(1,4,4,4-tetrafluoro-3-(3,4,5-trichlorophenyl)but-1-en-1-yl)-2-(trifluoromethyl)benzohydrazide]	50 to 100%	–	50 to 100%
